The results in this text go back to patent publication US20250177383A1, “DI-CYCLOPROPYL BASED IL-17A MODULATORS AND USES THEREOF” (DICE ALPHA, INC., priority 2022, published 2025).

The first experiment addresses T1, IL-17A/A (Homo sapiens, UniProt Q16552).
T1 sequence (Q16552 24-155): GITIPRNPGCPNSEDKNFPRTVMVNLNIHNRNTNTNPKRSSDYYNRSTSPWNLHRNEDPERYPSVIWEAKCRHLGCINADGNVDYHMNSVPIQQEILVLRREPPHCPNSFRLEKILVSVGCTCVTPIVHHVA
The experiment in a line: IL-17A/A HEK-Blue Cell Assay. The note with it: HEK-Blue IL-17 reporter cells, IL-17A/A stimulation, 20 hours, SEAP readout; read-out: IL17 AA HEK-5 pIC50 (converted). It is filed as cell-based. As for the experimental part:
The HEK-Blue IL-17 reporter cell line (Fisher #NC1408637) was used for cell-based IL-17A/A inhibition assays. Cells were grown and prepared for assays according to the manufacturer's instructions. This cell line consists of HEK 293 cells that were designed to expressed IL-17R^A, IL-17R^C, and the ActI adapter molecule, the combination of which, when stimulated by IL-17A/A activates a NFκB promoter and drives expression of a recombinant Secreted Alkaline Phosphatase (SEAP) protein. Media from the cells is then added to a development reagent (Quanti-Blue Substrate, Fisher #NC9711613), and read at A630.
Compounds were titrated in DMSO, with a top final compound concentration of 10 uM and added to the cells immediately before adding IL-17A/A (Genscript #Z03228). The cells, compound, and IL-17A/A were then incubated for 20 hours before media was removed for SEAP analysis. The resulting inhibition curve was then analyzed using a Dotmatics screening protocol, and IC50 values were determined using a 4-parameter nonlinear fit. DMSO was added to a universal final concentration of 0.1% to optimize background. IL-17A/A inhibition data is provided in Table 1 for selected compounds.
As to `CCC(=O)N[C@@H](C(=O)N1CCN(C)C(COC)C1)[C@@H](C)c1ccc(NC(=O)[C@@H](NC(=O)c2ccnn2CC)C(C2CC2)C2CC2)c(F)c1` (single isomer, unassigned) [Compound 202], the IC50 is 10 to 100 nM. Consider `CCC(=O)N[C@@H](C(=O)N1CCN(C)CC1)[C@@H](C)c1ccc(NC(=O)[C@@H](NC(=O)c2ccnn2C2CC2(F)F)C(C2CC2)C2CC2)c(F)c1` (single isomer, unassigned) [Compound 233], for which the IC50 was 10 to 100 nM. Still for that read-out and setting: next, `CCC(=O)N[C@@H](C(=O)N1CCN(C)CC1)[C@@H](C)c1ccc(NC(=O)[C@@H](NC(=O)c2ccnn2C2CC2(F)F)C(C2CC2)C2CC2)c(F)c1` (single isomer, unassigned) [Compound 234]: < 10 nM; `CCC(=O)N[C@@H](C(=O)N1CCN(C)CC1)[C@@H](C)c1ccc(NC(=O)[C@H](NC(=O)c2ccnn2CC)C(C2CC2)C2CC2)c(F)c1` [Compound 201]: 10 to 100 nM.

Turning to `CCC(=O)N[C@@H](C(=O)N1CCN(C)CC1)[C@@H](C)c1ccc(NC(=O)[C@@H](NC(=O)c2nonc2CC)C(C2CC2)C2CC2)c(F)c1` [Compound 204], the IC50 is < 10 nM. Same read-out and setting: the figure for `CCC(=O)N[C@@H](C(=O)N1C[C@@H](C)N(C)[C@@H](C)C1)[C@@H](C)c1ccc(NC(=O)[C@@H](NC(=O)c2nonc2CC)C(C2CC2)C2CC2)c(F)c1` [Compound 205] is < 10 nM. The same measure, in the same setting: next, `CCc1nonc1C(=O)N[C@H](C(=O)Nc1ccc([C@H](C)[C@@H](NC(=O)COC)C(=O)N2CCN(C)CC2)cc1F)C(C1CC1)C1CC1` [Compound 206]: < 10 nM; `CCC(=O)N[C@@H](C(=O)N1CCN(C)C[C@@H]1C)[C@@H](C)c1ccc(NC(=O)[C@@H](NC(=O)c2ccnn2CC)C(C2CC2)C2CC2)c(F)c1` [Compound 208]: < 10 nM. The same measure, in the same setting: next, `CCOC(=O)N(C)[C@@H](C)C(=O)N[C@@H](C(=O)N1CCN(C)[C@H](C)C1)[C@@H](C)c1ccc(NC(=O)[C@@H](NC(=O)c2ccnn2CC)C(C2CC2)C2CC2)c(F)c1` [Compound 210]: < 10 nM.

Take `CCOC(=O)N(C)[C@@H](C)C(=O)N[C@@H](C(=O)N1CCN(C)CC1)[C@@H](C)c1ccc(NC(=O)[C@@H](NC(=O)c2ccnn2CC)C(C2CC2)C2CC2)c(F)c1` [Compound 211]: the IC50 was < 10 nM.

For the compound `CCn1nccc1C(=O)N[C@H](C(=O)Nc1ccc([C@H](C)[C@@H](NC(=O)CCF)C(=O)N2CCN(C)CC2)cc1F)C(C1CC1)C1CC1` [Compound 218], the IC50 is 10 to 100 nM.

In the case of `CCc1nonc1C(=O)N[C@H](C(=O)Nc1ccc([C@H](C)[C@@H](NC(=O)[C@H](C)OC)C(=O)N2CCN(C)CC2)cc1F)C(C1CC1)C1CC1` [Compound 220], the IC50 was < 10 nM. Same read-out and setting: the figure for `CCc1nonc1C(=O)N[C@H](C(=O)Nc1ccc([C@H](C)[C@@H](NC(=O)N(C)C2CC2)C(=O)N2CCN(C)CC2)cc1F)C(C1CC1)C1CC1` [Compound 224] is < 10 nM. Still for that read-out and setting: the figure for `CCn1nccc1C(=O)N[C@H](C(=O)Nc1ccc([C@H](C)[C@@H](NC(=O)CC2CC2)C(=O)N2CCN(C)[C@H](C)C2)cc1F)C(C1CC1)C1CC1` [Compound 226] is < 10 nM; for `CCn1nccc1C(=O)N[C@H](C(=O)Nc1ccc([C@H](C)[C@@H](NC(=O)CC2CC2)C(=O)N2CCN(C)CC2)cc1F)C(C1CC1)C1CC1` [Compound 227] it is < 10 nM; for `CCC(=O)N[C@@H](C(=O)N1CCN(C)[C@H](C)C1)[C@@H](C)c1ccc(NC(=O)[C@@H](NC(=O)c2ccnn2C2CC2)C(C2CC2)C2CC2)c(F)c1` [Compound 229] it is < 10 nM. Same read-out and setting: next, `CCC(=O)N[C@@H](C(=O)N1CCN(C)CC1)[C@@H](C)c1ccc(NC(=O)[C@@H](NC(=O)c2ccnn2C2CC2)C(C2CC2)C2CC2)c(F)c1` [Compound 230]: 10 to 100 nM. For `CCC(=O)N[C@@H](C(=O)N1CCN(C)CC1)[C@@H](C)c1ccc(NC(=O)[C@@H](NC(=O)c2ccnn2CC(F)F)C(C2CC2)C2CC2)c(F)c1` [Compound 231], the IC50 was 10 to 100 nM. Same read-out and setting: the figure for `CCC(=O)N[C@@H](C(=O)N1C[C@@H]2C[C@H]1CN2C)[C@@H](C)c1ccc(NC(=O)[C@@H](NC(=O)c2ccnn2CC)C(C2CC2)C2CC2)c(F)c1` [Compound 235] is 10 to 100 nM. Same read-out and setting: next, `CCC(=O)N[C@@H](C(=O)N1C[C@H]2C[C@@H]1CN2C)[C@@H](C)c1ccc(NC(=O)[C@@H](NC(=O)c2ccnn2CC)C(C2CC2)C2CC2)c(F)c1` [Compound 236]: 10 to 100 nM; `CCC(=O)N[C@@H](C(=O)N1C[C@H]2CN(C)C[C@H]2C1)[C@@H](C)c1ccc(NC(=O)[C@@H](NC(=O)c2ccnn2CC)C(C2CC2)C2CC2)c(F)c1` [Compound 237]: 100 to 10000 nM; `CCC(=O)N[C@@H](C(=O)N1CC2(CN(C)C2)C1)[C@@H](C)c1ccc(NC(=O)[C@@H](NC(=O)c2ccnn2CC)C(C2CC2)C2CC2)c(F)c1` [Compound 238]: 100 to 10000 nM. Same read-out and setting: the figure for `CCC(=O)N[C@@H](C(=O)N1C[C@H]2CC[C@@H](C1)N2C)[C@@H](C)c1ccc(NC(=O)[C@@H](NC(=O)c2ccnn2CC)C(C2CC2)C2CC2)c(F)c1` [Compound 239] is < 10 nM; for `CCC(=O)N[C@@H](C(=O)N1CC[C@H](N(C)C)C1)[C@@H](C)c1ccc(NC(=O)[C@@H](NC(=O)c2ccnn2CC)C(C2CC2)C2CC2)c(F)c1` [Compound 240] it is 10 to 100 nM; for `CCC(=O)N[C@@H](C(=O)N1C[C@H]2C[C@@H](C1)N2C)[C@@H](C)c1ccc(NC(=O)[C@@H](NC(=O)c2ccnn2CC)C(C2CC2)C2CC2)c(F)c1` [Compound 241] it is 10 to 100 nM.

As for `CCC(=O)N[C@@H](C(=O)N1CC[C@@H](N(C)C)C1)[C@@H](C)c1ccc(NC(=O)[C@@H](NC(=O)c2ccnn2CC)C(C2CC2)C2CC2)c(F)c1` [Compound 242], the IC50 is 10 to 100 nM. Still for that read-out and setting: the figure for `CCC(=O)N[C@@H](C(=O)N1CCN(C)CC1)[C@@H](C)c1ccc(NC(=O)[C@@H](NC(=O)c2ccnn2CCO)C(C2CC2)C2CC2)c(F)c1` [Compound 243] is 100 to 10000 nM; for `CCC(=O)N[C@@H](C(=O)N1CCN(C)[C@H](C)C1)[C@@H](C)c1ccc(NC(=O)[C@@H](NC(=O)c2ccnn2CCO)C(C2CC2)C2CC2)c(F)c1` [Compound 244] it is 100 to 10000 nM; for `CCC(=O)N[C@@H](C(=O)N1CCN(C)CC1)[C@@H](C)c1ccc(NC(=O)[C@@H](NC(=O)c2ccnn2C)C(C2CC2)C2CC2)c(F)c1` [Compound 247] it is 10 to 100 nM. Same read-out and setting: next, `CCC(=O)N[C@@H](C(=O)N1CCN(C)[C@H](C)C1)[C@@H](C)c1ccc(NC(=O)[C@@H](NC(=O)c2ccnn2CC(F)(F)F)C(C2CC2)C2CC2)c(F)c1` [Compound 248]: 10 to 100 nM; `CCC(=O)N[C@@H](C(=O)N1CCN(C)CC1)[C@@H](C)c1ccc(NC(=O)[C@@H](NC(=O)c2ccnn2CC(F)(F)F)C(C2CC2)C2CC2)c(F)c1` [Compound 249]: 10 to 100 nM; `CCC(=O)N[C@@H](C(=O)N1CCC(C)(O)CC1)[C@@H](C)c1ccc(NC(=O)[C@@H](NC(=O)c2ccnn2CCF)C(C2CC2)C2CC2)c(F)c1` [Compound 250]: < 10 nM. On to `CCC(=O)N[C@@H](C(=O)N1CCOCC1)[C@@H](C)c1ccc(NC(=O)[C@@H](NC(=O)c2ccnn2CCF)C(C2CC2)C2CC2)c(F)c1` [Compound 251], for which the IC50 is 10 to 100 nM. Same read-out and setting: next, `CCC(=O)N[C@@H](C(=O)N1CCC(C)(O)CC1)[C@@H](C)c1ccc(NC(=O)[C@@H](NC(=O)c2ccnn2CCN2CCOCC2)C(C2CC2)C2CC2)c(F)c1` [Compound 252]: 10 to 100 nM. On the same count and under the same terms, next, `CCC(=O)N[C@@H](C(=O)N1CCOCC1)[C@@H](C)c1ccc(NC(=O)[C@@H](NC(=O)c2ccnn2CCN2CCOCC2)C(C2CC2)C2CC2)c(F)c1` [Compound 253]: 100 to 10000 nM; `CCn1nccc1C(=O)N[C@H](C(=O)Nc1ccc([C@H](C)[C@@H](NC(=O)[C@H](C)OC)C(=O)N2C[C@H]3CC[C@@H](C2)N3C)cc1F)C(C1CC1)C1CC1` [Compound 254]: < 10 nM; `CCn1nccc1C(=O)N[C@H](C(=O)Nc1ccc([C@H](C)[C@@H](NC(=O)[C@H](C)OC)C(=O)N2CC[C@H](N(C)C)C2)cc1F)C(C1CC1)C1CC1` [Compound 255]: < 10 nM. Take `CCn1nccc1C(=O)N[C@H](C(=O)Nc1ccc([C@H](C)[C@@H](NC(=O)[C@H](C)OC)C(=O)N2C[C@H]3C[C@@H]2CN3C)cc1F)C(C1CC1)C1CC1` [Compound 256]: the IC50 was 10 to 100 nM.

Consider `CCC(=O)N[C@@H](C(=O)N1CCN(C)[C@H](C)C1)[C@@H](C)c1ccc(NC(=O)[C@@H](NC(=O)c2ccnn2C(C)C)C(C2CC2)C2CC2)c(F)c1` [Compound 258], for which the IC50 was < 10 nM. Still for that read-out and setting: next, `CO[C@@H](C)C(=O)N[C@@H](C(=O)N1CCN(C)CC1)[C@@H](C)c1ccc(NC(=O)[C@@H](NC(=O)c2ccnn2C(C)C)C(C2CC2)C2CC2)c(F)c1` [Compound 259]: < 10 nM.

Still in this experiment, the particulars now being: IL17 AA HEK-5 pIC50, HEK-Blue IL-17 reporter cells, IL-17A/A stimulation, 20 hours, SEAP readout.
As to `CCn1nccc1C(=O)N[C@H](C(=O)Nc1ccc([C@H](C)[C@@H](NC(=O)CF)C(=O)N2CCN(C)[C@H](C)C2)cc1F)C(C1CC1)C1CC1` [Compound 228], the IC50 was 10 to 100 nM.
